Assays:
[1] = test system: HSC-39 (Gastric Carcinoma); assay: Bliss excess, mean over the matrix (fraction); higher = more synergy
Summary of the method: (§1)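 Cell lines in DMEM/F12 or RPMI with 10% FBS were plated in 1536-well plates, held 24 hours at 37°C, 5% CO2, then given two-drug dose matrices for 72 hours (DMSO typically 0.2%). Viability was read by CellTiter-Glo 2.0 luminescence and scaled as inhibition from 0 (vehicle wells) to 1 (blank wells). Combination Emax is the second-highest inhibition in the matrix; Bliss excess is observed combination effect minus expected EA + EB − EA·EB, EA and EB being single-agent effects.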

[2] = test system: OVMIU (Ovarian Carcinoma); assay: as above
Summary of the method: as §1

SF539 (Glioblastoma) [3] = assay: as above
Summary of the method: as §1

[4] = test system: OPM-2 (Plasma Cell Myeloma); assay: as above
Summary of the method: as §1

IST-MES1 (Mesothelioma) = assay: as above
Summary of the method: as §1

[5] = test system: L-1236 (Hodgkin's Lymphoma); assay: as above
Summary of the method: as §1

[6] = test system: NCI-H2342 (Lung Adenocarcinoma); assay: as above
Summary of the method: as §1

[7] = test system: MKN45 (Gastric Carcinoma); assay: as above
Summary of the method: as §1

[8] = test system: REH (B-Lymphoblastic Leukemia); assay: as above
Summary of the method: as §1

[9] = test system: SK-PN-DW (Other Solid Carcinomas); assay: as above
Summary of the method: as §1

[10] = test system: RCM-1 (Colorectal Carcinoma); assay: as above
Summary of the method: as §1

NB12 (Neuroblastoma) = assay: as above
Summary of the method: as §1

[11] = test system: PSN1 (Pancreatic Carcinoma); assay: as above
Summary of the method: as §1

[12] = test system: COLO-680N (Esophageal Squamous Cell Carcinoma); assay: as above
Summary of the method: as §1

[13] = test system: TE-8 (Esophageal Squamous Cell Carcinoma); assay: as above
Summary of the method: as §1

[14] = test system: RKN (Other Solid Carcinomas); assay: as above
Summary of the method: as §1

[15] = test system: HSC-39 (Gastric Carcinoma); assay: combination Emax (second highest fraction inhibited in the dose matrix, 72 h); higher = more inhibition; extreme values may be limits of the assay
Summary of the method: as §1

SF539 (Glioblastoma) [16] = assay: as above
Summary of the method: as §1

[17] = test system: MFE-280 (Endometrial Carcinoma); assay: as above
Summary of the method: as §1

[18] = test system: PSN1 (Pancreatic Carcinoma); assay: as above
Summary of the method: as §1
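Throughout, for Bliss excess, mean over the matrix: after 72 h of two-drug dosing.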

| Compound | Bliss excess [1] | Bliss excess [2] | Bliss excess (SF539 (Glioblastoma) [3]) | Bliss excess [4] | Bliss excess (IST-MES1 (Mesothelioma)) | Bliss excess [5] | Bliss excess [6] | Bliss excess [7] | Bliss excess [8] | Bliss excess [9] | Bliss excess [10] | Bliss excess (NB12 (Neuroblastoma)) | Bliss excess [11] | Bliss excess [12] | Bliss excess [13] | Bliss excess [14] | combination Emax [15] | combination Emax (SF539 (Glioblastoma) [16]) | combination Emax [17] | combination Emax [18] |
| --- | --- | --- | --- | --- | --- | --- | --- | --- | --- | --- | --- | --- | --- | --- | --- | --- | --- | --- | --- | --- |
| CN(CCO)CC[C@H](CSc1ccccc1)Nc1ccc(S(=O)(=O)NC(=O)c2ccc(N3CCC([C@@H](O)c4ccccc4-c4ccc(Cl)cc4)CC3)cc2)cc1S(=O)(=O)C(F)(F)F [AZD4320] + CC(=O)O[C@H]1C(=O)[C@@]2(C)[C@H]([C@H](OC(=O)c3ccccc3)[C@]3(O)C[C@H](OC(=O)[C@H](O)[C@@H](NC(=O)c4ccccc4)c4ccccc4)C(C)=C1C3(C)C)[C@]1(OC(C)=O)CO[C@@H]1C[C@@H]2O [Paclitaxel] (first compound max 1 µM, 7x7, partner max 3 µM) | 0.0069 | 0.0232 | 0.0404 | 0.023 | 0.0787 | 0.0186 | 0.0455 | -0.121 | 0.0132 | 0.0738 | 0.0793 | 0.0333 | 0.0166 | 0.092 | 0.0954 | 0.0901 | 1 | 1 | 0.979 | 0.942 |
| C=CCn1c(=O)c2cnc(Nc3ccc(N4CCN(C)CC4)cc3)nc2n1-c1cccc(C(C)(C)O)n1 [AZD1775] + Nc1ccn([C@@H]2O[C@H](CO)[C@@H](O)C2(F)F)c(=O)n1 [Gemcitabine] (first compound max 1 µM, partner max 0.3 µM) | 0.0379 | -0.025 | 0.0282 | 0.0255 | 0.0603 | -0.0076 | 0.0724 | -0.116 | -0.0139 | -0.0347 | 0.0233 | 0.0471 | 0.0451 | 0.0195 | -0.0247 | 0.0082 | 1 | 0.986 | 0.655 | 0.832 |
| Cc1cc2ncnn2cc1Nc1ncc2c(n1)n(C1CCOCC1)c(=O)n2C [AZD7648] + COc1cc([C@@H]2c3cc4c(cc3[C@@H](O[C@@H]3O[C@@H]5CO[C@@H](C)O[C@H]5[C@H](O)[C@H]3O)[C@H]3COC(=O)[C@H]23)OCO4)cc(OC)c1O [Etoposide] (first compound max 10 µM, 7x7, partner max 10 µM) | 0.0582 | 0.0243 | 0.136 | -0.0072 | 0.116 | 0.0004 | 0.0597 | -0.0126 | 0.158 | 0.184 | 0.0309 | 0.121 | 0.0771 | 0.0384 | 0.0501 | 0.0299 | 0.854 | 0.934 | 0.889 | 0.834 |
| Cc1c2c(nn1C)CSCc1cc(n(C)n1)CSc1cc(c3ccccc3c1)OCCCc1c(C(=O)O)n(C)c3c-2c(Cl)ccc13 [AZD5991] + Nc1ccn([C@@H]2O[C@H](CO)[C@@H](O)C2(F)F)c(=O)n1 [Gemcitabine] (first compound max 1 µM, 7x7, partner max 0.3 µM) | 0.006 | -0.0823 | 0.0133 | 0.0109 | -0.0208 | -0.0646 | 0.0488 | -0.0655 | -0.0103 | 0.008 | 0.0164 | 0.0008 | -0.0486 | -0.0215 | -0.0682 | -0.0708 | 1 | 0.886 | 0.468 | 0.846 |
| O=C(c1cc(Cc2n[nH]c(=O)c3ccccc23)ccc1F)N1CCN(C(=O)C2CC2)CC1 [Olaparib] + CC1(C)CCC(CN2CCN(c3ccc(C(=O)NS(=O)(=O)c4ccc(NCC5CCOCC5)c([N+](=O)[O-])c4)c(Oc4cnc5[nH]ccc5c4)c3)CC2)=C(c2ccc(Cl)cc2)C1 [Venetoclax] (first compound max 10 µM, 7x7, partner max 1 µM) | 0.0033 | -0.067 | -0.0105 | 0.0309 | -0.0432 | -0.0009 | -0.0201 | -0.0424 | 0.163 | 0.0049 | -0.0304 | 0.0811 | -0.0231 | -0.0584 | -0.0825 | -0.0305 | 0.205 | 0.358 | 0.169 | 0.192 |
| C[C@@H]1COCCN1c1cc(C2([S@](C)(=N)=O)CC2)nc(-c2ccnc3[nH]ccc23)n1 [AZD6738] + Nc1ccn([C@@H]2O[C@H](CO)[C@@H](O)C2(F)F)c(=O)n1 [Gemcitabine] (first compound max 10 µM, 7x7, partner max 0.3 µM) | -0.0049 | -0.0138 | 0.0251 | 0.0289 | -0.0097 | 0.0294 | 0.086 | -0.0824 | 0.0497 | -0.0579 | 0.0156 | -0.012 | 0.0209 | 0.0393 | 0.0028 | 0.0982 | 1 | 0.981 | 0.864 | 0.893 |
| C[C@@H](Nc1cc(F)cc(F)c1)c1cc(C(=O)N(C)C)cc2c(=O)cc(N3CCOCC3)oc12 [AZD8186] + CC(=O)c1c(C)c2cnc(Nc3ccc(N4CCNCC4)cn3)nc2n(C2CCCC2)c1=O [Palbociclib] (first compound max 10 µM, 7x7, partner max 10 µM) | 0.0271 | -0.0439 | 0.0583 | 0.0338 | 0.0167 | -0.138 | 0.0877 | -0.0476 | 0.0638 | 0.073 | -0.0077 | 0.0009 | 0.0298 | -0.0328 | -0.0495 | -0.0328 | 0.813 | 0.412 | 0.518 | 0.558 |
| O=C(c1cc(Cc2n[nH]c(=O)c3ccccc23)ccc1F)N1CCN(C(=O)C2CC2)CC1 [Olaparib] + COc1nnc2ccc(N3CCC(c4ccc(OCCN5CCN(C)C(=O)[C@H]5C)cc4)CC3)nn12 [AZD5153] (first compound max 10 µM, 7x7, partner max 1 µM) | -0.072 | -0.0521 | -0.0258 | 0.0122 | -0.117 | -0.0184 | -0.0253 | -0.0794 | 0.0378 | -0.0518 | -0.0473 | -0.0203 | -0.0337 | -0.0446 | -0.0706 | 0.0101 | 0.762 | 0.642 | 0.397 | 0.429 |
| CC1(C)CCC(CN2CCN(c3ccc(C(=O)NS(=O)(=O)c4ccc(NCC5CCOCC5)c([N+](=O)[O-])c4)c(Oc4cnc5[nH]ccc5c4)c3)CC2)=C(c2ccc(Cl)cc2)C1 [Venetoclax] + CS(=O)(=O)CCNCc1ccc(-c2ccc3ncnc(Nc4ccc(OCc5cccc(F)c5)c(Cl)c4)c3c2)o1 [Lapatinib] (first compound max 1 µM, 7x7, partner max 10 µM) | -0.0257 | -0.0328 | -0.0166 | 0.0306 | -0.0357 | -0.0583 | -0.0374 | -0.054 | 0.0755 | -0.0284 | -0.0112 | -0.0427 | -0.0211 | -0.0166 | -0.0453 | -0.0482 | 0.915 | 0.309 | 0.255 | 0.177 |
| Cc1c2c(nn1C)CSCc1cc(n(C)n1)CSc1cc(c3ccccc3c1)OCCCc1c(C(=O)O)n(C)c3c-2c(Cl)ccc13 [AZD5991] + CS(=O)(=O)CCNCc1ccc(-c2ccc3ncnc(Nc4ccc(OCc5cccc(F)c5)c(Cl)c4)c3c2)o1 [Lapatinib] (first compound max 1 µM, 7x7, partner max 10 µM) | -0.0305 | 0.0371 | 0.0226 | -0.0145 | 0.0139 | 0.102 | 0.012 | -0.146 | -0.038 | 0.0081 | 0.0137 | -0.0394 | -0.045 | -0.011 | 0.0014 | -0.0174 | 1 | 0.479 | 0.347 | 0.316 |
| CN(CCO)CC[C@H](CSc1ccccc1)Nc1ccc(S(=O)(=O)NC(=O)c2ccc(N3CCC([C@@H](O)c4ccccc4-c4ccc(Cl)cc4)CC3)cc2)cc1S(=O)(=O)C(F)(F)F [AZD4320] + Nc1ccn([C@@H]2O[C@H](CO)[C@@H](O)C2(F)F)c(=O)n1 [Gemcitabine] (first compound max 1 µM, 7x7, partner max 0.3 µM) | -0.0867 | 0.0028 | -0.0356 | 0.0089 | 0.0448 | -0.0377 | 0.0364 | -0.0393 | 0.0126 | -0.0422 | -0.0271 | 0.0268 | -0.0027 | -0.08 | 0.0054 | -0.0164 | 0.869 | 0.945 | 0.8 | 0.885 |
| Cc1c2c(nn1C)CSCc1cc(n(C)n1)CSc1cc(c3ccccc3c1)OCCCc1c(C(=O)O)n(C)c3c-2c(Cl)ccc13 [AZD5991] + CC(=O)O[C@H]1C(=O)[C@@]2(C)[C@H]([C@H](OC(=O)c3ccccc3)[C@]3(O)C[C@H](OC(=O)[C@H](O)[C@@H](NC(=O)c4ccccc4)c4ccccc4)C(C)=C1C3(C)C)[C@]1(OC(C)=O)CO[C@@H]1C[C@@H]2O [Paclitaxel] (first compound max 1 µM, 7x7, partner max 3 µM) | 0.0078 | 0.0231 | 0.0053 | 0.0072 | -0.007 | -0.0631 | 0.082 | -0.0238 | -0.0011 | -0.0012 | 0.0336 | -0.0424 | 0.0098 | 0.0107 | -0.0041 | -0.0775 | 1 | 0.971 | 0.574 | 0.746 |

Source: the supplement of paper PMC11061612
